Test results: publication PMC11557435, “Identification of novel SARS-CoV-2 3CLpro inhibitors by molecular docking, in vitro assays, molecular dynamics simulations and DFT analyses” (Frontiers in Pharmacology, 2024)

Target: SARS-CoV-2 3CLpro (Severe acute respiratory syndrome coronavirus 2, UniProt P0DTD1)
Experiment: biochemical
Conditions: for inhibition at 50 µM: single point, 50 μM compound

SMILES	IC50 [µM]	inhibition at 50 µM [%]
CC[C@H](C)N(Cc1cccc(OC)c1)C[C@@H](O)COc1ccc(OC)cc1 [Compound 1]	8.98 ± 0.57	85.4
CC[C@H](C)[C@H](NC(=O)c1ccc2nc(-n3cccc3)sc2c1)C(=O)NCc1cccnc1 [Compound 5]	8.5 ± 0.26	84
COc1cc(-c2nc3cnccn3c2Nc2cccc(Cl)c2)ccc1O [Compound 10]	9.08 ± 0.56	78
CCOc1ccc(NC(=O)C(CC(C)C)NC(=O)C2CCC(C)CC2)cc1 (stereo not drawn) [Compound 34]	6.12 ± 0.42	78.3
COc1ccc(NC(=O)c2ccccc2NC(=O)c2ccc([N+](=O)[O-])c(C)c2)cc1 [Compound 36]	4.47 ± 0.39	81.9
CCC(CC)C(=O)Nc1cccc(C(=O)Nc2ccccc2C(=O)Nc2ccc(OC)cc2)c1 [Compound 43]	6.99 ± 0.62	84.8
